# Data published in US11713335B2, “Aminocoumarin compounds and methods of their use” (President and Fellows of Harvard College, priority 2018, dated 2023).
# Read-outs that look alike come from different tables or passages of the source.
# Assays:
# Type in all cases: cell-based
# K. pneumoniae 700721 = test: Minimal inhibitory concentration, K. pneumoniae 700721; conditions: read-out: MIC (μM) K. pneumoniae 700721
# Method: (§1) General Procedure for Determination of Minimal Inhibitory Concentrations
# (§2) Overnight cultures (5 mL) of bacterial strains were grown in LB media or TSA media (for S. aureus) at 37° C. and with shaking at 220 rpm until saturation. The overnight culture was diluted serially 1:100 (50 μL in 5 mL sterile media) and then 1:100 (250 μL in 25 mL sterile media). The 25 mL of diluted culture was then dispensed to a sterile 96 well plate (Corning #3370). 198 μL of culture were dispensed into row A and 100 μL of this culture were dispensed into rows B-H. Aminocoumarin compound (DMSO stock) were added to the first row and then the row was mixed by pipetting. 100 μL of culture from row A were transferred to row B and the serial dilution continued until the final 100 μL from row H were discarded. The plate was incubated without shaking in a 37° C. for 16 hours and then read by visible light spectrophotometer (Molecular Devices) at 600 nm. The minimal inhibitory concentration (MIC) was determined as the lowest concentration of compound concentration that inhibited the growth of bacteria.
# (§3) The compounds of the invention were assessed for activities against the pathogens S. aureus RN4220 and MW2, E. cloacae 13047, A. baumannii 19606, K. pneumoniae 700721, E. coli MC4100, 25922. All activities are reported in micromolar (uM) and are 16 hour minimal inhibitory concentrations at 37° C. The assay is detailed in Example 11 and is titled “General Procedure for Determination of Minimal Inhibitory Concentrations.”
# A. baumannii 19606 = test: Minimal inhibitory concentration, A. baumannii 19606; conditions: Acinetobacter baumannii, 19606, 16 h, read-out: MIC (μM) A. baumannii 19606
# Method: as §1, §2, §3
# S. aureus RN4220 = test: Minimal inhibitory concentration, S. aureus RN4220; conditions: Staphylococcus aureus, RN4220, 16 h, read-out: MIC (μM) S. aureus RN4220
# Method: as §1, §2, §3
# E. cloacae 13047 = test: Minimal inhibitory concentration, E. cloacae 13047; conditions: read-out: MIC (μM) E. cloacae 13047
# Method: as §1, §2, §3
# S. aureus MW2 = test: Minimal inhibitory concentration, S. aureus MW2; conditions: Staphylococcus aureus, MRSA, 16 h, read-out: MIC (μM) S. aureus MW2 (MRSA)
# Method: as §1, §2, §3
# E. coli MC4100 = test: Minimal inhibitory concentration, E. coli MC4100; conditions: Escherichia coli, MC4100, 16 h, read-out: MIC (μM) E. coli MC4100 ara+
# Method: as §1, §2, §3
# E. coli 25922 = test: Minimal inhibitory concentration, E. coli 25922; conditions: Escherichia coli, 25922, 16 h, read-out: MIC (μM) E. coli 25922
# Method: as §1, §2, §3
# [1] = Klebsiella pneumoniae, 700721, 16 h
# [2] = Enterobacter cloacae, 13047, 16 h
# [3] = Klebsiella pneumoniae, 700721, 16 hour minimal inhibitory concentration at 37° C.
# [4] = 16 hour minimal inhibitory concentration at 37° C.
# [5] = Enterobacter cloacae, 13047, 16 hour minimal inhibitory concentration at 37° C.
SMILES,MIC (K. pneumoniae 700721; [1]) [µM],MIC (A. baumannii 19606) [µM],MIC (S. aureus RN4220) [µM],MIC (E. cloacae 13047; [2]) [µM],MIC (S. aureus MW2) [µM],MIC (E. coli MC4100) [µM],MIC (E. coli 25922) [µM],MIC (K. pneumoniae 700721; [3]) [µM],MIC (A. baumannii 19606; [4]) [µM],MIC (S. aureus RN4220; [4]) [µM],MIC (E. cloacae 13047; [5]) [µM],MIC (S. aureus MW2; [4]) [µM],MIC (E. coli MC4100; [4]) [µM],MIC (E. coli 25922; [4]) [µM]
CO[C@@H]1[C@@H](OC(=O)c2cc(C)c(C)[nH]2)[C@@H](O)[C@H](Oc2ccc3c(O)c(NC(=O)c4ccc(O)c(CC=C(C)C)c4)c(=O)oc3c2C)OC1(C)C [Compound 213],> 100,4.5,1.8,> 100,0.45,> 200,> 200,–,–,–,–,–,–,–
CO[C@@H]1[C@@H](OC(=O)Nc2ccccc2)[C@@H](O)[C@H](Oc2ccc3c(O)c(NC(=O)c4cccc(-c5ccc6ccccc6c5)c4)c(=O)oc3c2C)OC1(C)C [Compound 205],–,–,–,–,–,–,–,> 100,> 50,9,> 100,9,> 200,> 200
CO[C@@H]1[C@@H](OC(N)=O)[C@@H](O)[C@H](Oc2ccc3c(O)c(NC(=O)c4cccc(-c5ccccc5Br)c4)c(=O)oc3c2C)OC1(C)C [Compound 235],–,–,–,–,–,–,–,> 100,> 50,9,> 100,5,18,18
CO[C@@H]1[C@@H](OC(N)=O)[C@@H](O)[C@H](Oc2ccc3c(O)c(NC(=O)c4cccc(Br)c4)c(=O)oc3c2C)OC1(C)C [Compound 232],–,–,–,–,–,–,–,> 100,> 50,82,> 100,82,> 200,> 200
Cc1c(O)ccc2c(O)c(NC(=O)c3ccc(I)c(-c4ccccc4)c3)c(=O)oc12 [Compound 228],–,–,–,–,–,–,–,> 100,> 50,97,> 100,97,> 200,> 200
CO[C@@H]1[C@@H](OC(N)=O)[C@@H](O)[C@H](Oc2ccc3c(O)c(NC(=O)c4ccc(C(=O)c5ccccc5)cc4)c(=O)oc3c2C)OC1(C)C [Compound 233],–,–,–,–,–,–,–,> 100,> 50,40,> 100,40,> 200,> 200
CO[C@@H]1[C@@H](OC(=O)c2ccc(C)[nH]2)[C@@H](O)[C@H](Oc2ccc3c(O)c(NC(=O)c4ccc(O)c(CC=C(C)C)c4)c(=O)oc3c2C)OC1(C)C [Compound 112],37,< 0.11,< 0.01,> 100,< 0.01,74,18.5,–,–,–,–,–,–,–
CO[C@@H]1[C@@H](OC(N)=O)[C@@H](O)[C@H](Oc2ccc3c(O)c(NC(=O)c4ccc(C)c(Oc5ccccc5)c4)c(=O)oc3c2C)OC1(C)C [Compound 255],–,–,–,–,–,–,–,10,> 50,5,77,5,2.4,5
CO[C@@H]1[C@@H](OC(N)=O)[C@@H](O)[C@H](Oc2ccc3c(O)c(NC(=O)c4cccc(Oc5cccc(C(F)(F)F)c5)c4)c(=O)oc3c2C)OC1(C)C [Compound 241],–,–,–,–,–,–,–,> 100,> 50,9.08,> 100,9.08,155,145
CO[C@@H]1[C@@H](OC(N)=O)[C@@H](O)[C@H](Oc2ccc3c(O)c(NC(=O)c4ccc(I)cc4)c(=O)oc3c2C)OC1(C)C [Compound 225],–,–,–,–,–,–,–,> 100,> 50,38,> 100,38,–,> 200
CO[C@@H]1[C@@H](OC(N)=O)[C@@H](O)[C@H](Oc2ccc3c(O)c(NC(=O)c4cccc(Nc5ccccc5)c4)c(=O)oc3c2C)OC1(C)C [Compound 218],–,–,–,–,–,–,–,> 100,> 50,10,> 100,10,80,161
COc1cccc(Oc2cccc(C(=O)Nc3c(O)c4ccc(O[C@@H]5OC(C)(C)[C@H](OC)[C@@H](OC(N)=O)[C@H]5O)c(C)c4oc3=O)c2)c1 [Compound 240],–,–,–,–,–,–,–,> 100,> 50,19.2,> 100,19.2,4.5,38
CO[C@@H]1[C@@H](OC(N)=O)[C@@H](O)[C@H](Oc2ccc3c(O)c(NC(=O)c4ccc(Br)cc4)c(=O)oc3c2C)OC1(C)C [Compound 204],–,–,–,–,–,–,–,> 100,> 50,82,> 100,82,> 200,> 200
C#Cc1cccc(C(=O)Nc2c(O)c3ccc(O[C@@H]4OC(C)(C)[C@H](OC)[C@@H](OC(N)=O)[C@H]4O)c(C)c3oc2=O)c1 [Compound 229],–,–,–,–,–,–,–,> 100,> 50,90,> 100,90,> 200,> 200
CO[C@@H]1[C@@H](OC(N)=O)[C@@H](O)[C@H](Oc2ccc3c(O)c(NC(=O)c4ccc5c(c4)oc4ccccc45)c(=O)oc3c2C)OC1(C)C [Compound 250],–,–,–,–,–,–,–,> 100,> 50,10,> 100,10,> 100,> 200
CO[C@@H]1[C@H]2OP(=O)(c3ccccc3)O[C@H]2[C@H](Oc2ccc3c(O)c(NC(=O)c4ccc(O)c(CC=C(C)C)c4)c(=O)oc3c2C)OC1(C)C (stereo partly drawn) [Compound 208],–,–,–,–,–,–,–,> 100,> 50,> 100,> 100,> 100,> 200,> 200
CO[C@@H]1[C@@H](OC(N)=O)[C@@H](O)[C@H](Oc2ccc3c(O)c(NC(=O)c4ccc(N=[N+]=[N-])cc4)c(=O)oc3c2C)OC1(C)C [Compound 224],–,–,–,–,–,–,–,> 100,> 50,88,> 100,> 100,–,> 200
